Earlier results in US12383619B2, “Use of glutamate modulating agents with immunotherapies to treat cancer” (Biohaven Therapeutics Ltd., priority 2016, dated 2025).
Read-outs that look alike come from different tables or passages of the source.

Legend:
PD-1 = molecular target: T1, PD-1 (Homo sapiens, UniProt Q15116); conditions: 15 subjects, 0.3 mg/kg to 10 mg/kg, across all doses; cited from earlier work
T1 construct: indicate that PD-1 occupancy appears to be dose-independent in this dose range; host or cells: endogenous receptor in dosed subjects

[1] = tested on: advanced (unresectable or metastatic) melanoma; conditions: cited from earlier work
[2] = tested on: advanced (unresectable or metastatic) melanoma; conditions: cited from earlier work; for median OS: 3 mg/kg monotherapy group
advanced melanoma = conditions: 3 mg/kg every 3 weeks, cited from earlier work
[3] = nivolumab 3 mg/kg every 2 weeks vs dacarbazine
[4] = patients who required re-treatment, ipilimumab monotherapy group

T1 sequence (Q15116 25-288): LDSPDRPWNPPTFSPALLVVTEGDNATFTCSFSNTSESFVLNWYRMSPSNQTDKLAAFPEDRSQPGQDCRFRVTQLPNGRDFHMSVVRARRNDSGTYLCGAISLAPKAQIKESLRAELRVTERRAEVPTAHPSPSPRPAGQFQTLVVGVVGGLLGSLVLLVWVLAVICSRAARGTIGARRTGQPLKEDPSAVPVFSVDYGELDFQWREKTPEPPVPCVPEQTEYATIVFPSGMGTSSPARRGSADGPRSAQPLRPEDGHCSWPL

For nivolumab, the “mean occupancy rate (PD-1)” value (PD-1) is given as 85%, the “mean plateau occupancy (PD-1)” value (PD-1) is given as 72% and the “Complete response (CR) (number)” value ([1]; 3 mg/kg every 2 weeks, n = 210) is given as 16. The “Objective response (number)” value ([1]; 3 mg/kg every 2 weeks, n = 210) was 84, the “Overall survival: Events” value ([1]; 3 mg/kg every 2 weeks, n = 210) was 50 and the “Overall survival: Events, figure in parentheses” value ([1]; 3 mg/kg every 2 weeks, n = 210) was “(23.8)”. The “Partial response (PR) (number)” value ([1]; 3 mg/kg every 2 weeks, n = 210) was 68, the “Progression-free survival: Events” value ([1]; 3 mg/kg every 2 weeks, n = 210) was 108 and the “Progression-free survival: Events, figure in parentheses” value ([1]; 3 mg/kg every 2 weeks, n = 210) was “(51.4)”. For the same substance, the “Stable disease (SD) (number)” value ([1]; 3 mg/kg every 2 weeks, n = 210) was 35, the “Complete response (CR) (%)” value ([1]; 3 mg/kg every 2 weeks) was “(7.6%)” and the “Median duration of response” value ([1]; 3 mg/kg every 2 weeks) was “Not reached”. The “Median time to response” value ([1]; 3 mg/kg every 2 weeks) was 2.1 Months, the “Objective response (%)” value ([1]; 3 mg/kg every 2 weeks) was “(40.0%)” and the “Overall survival: Median” value ([1]; 3 mg/kg every 2 weeks) was “Not reached”. For the same substance, the “Overall survival: Rate At 6 months” value ([1]; 3 mg/kg every 2 weeks) was 84.1, the “Overall survival: Rate At 12 months” value ([1]; 3 mg/kg every 2 weeks) was 72.9 and the “Partial response (PR) (%)” value ([1]; 3 mg/kg every 2 weeks) was “(32.4%)”. The “Progression-free survival: Median” value ([1]; 3 mg/kg every 2 weeks) was 5.1, the “Progression-free survival: Rate At 6 months” value ([1]; 3 mg/kg every 2 weeks) was 48.0 and the “Progression-free survival: Rate At 12 months” value ([1]; 3 mg/kg every 2 weeks) was 41.8. The “Stable disease (SD) (%)” value ([1]; 3 mg/kg every 2 weeks) was “(16.7%)”, the “Objective response: Odds ratio” value [1, 3] was 4.06 and the “Overall survival: Hazard ratio” value [1, 3] was 0.42. For the same substance, the “Progression-free survival: Hazard ratio” value [1, 3] was 0.43.

In the case of “Ipilimumab: fully human IgG1 monoclonal antibody that blocks the binding of CTLA-4 to its B7 ligands”, the “median OS” value ([2]; patients with CR or PR) is listed as “not reached”, the “median OS” value ([2]; patients with PD) is listed as 8 months and the “median OS” value ([2]; patients with SD) is listed as 22 months. For the same substance, the “OS at 1 year % (95% CI)” value ([2]; 3 mg/kg monotherapy, n = 137) was 46% (37.0, 54.1), the “OS at 2 years % (95% CI)” value ([2]; 3 mg/kg monotherapy, n = 137) was 24% (16.0, 31.5) and the “Overall survival: Median Months” value ([2]; 3 mg/kg monotherapy, n = 137) was 10 months. For the same substance, the “hazard ratio (HR) for comparison of OS” value ([2]; ipilimumab monotherapy vs gp100) was 0.66, the BORR [2, 4] was 38% and the “disease control rate (DCR) (CR+PR+SD)” value [2, 4] was 75%. The “Best overall response: ORR %” value (advanced melanoma) was 12%, the Complete response % (advanced melanoma) was 1% and the “OS: % of patients with event” value (advanced melanoma) was “(40%)”. The “OS: Median in months” value (advanced melanoma) was “Not reached”, the “OS: Number of patients with event” value (advanced melanoma) was 112 and the “PFS: % of patients with event” value (advanced melanoma) was “(68%)”. For the same substance, the “PFS: Median in months” value (advanced melanoma) was 2.8 months, the “PFS: Number of patients with event” value (advanced melanoma) was 188 and the Partial response % (advanced melanoma) was 10%. The “Response duration: % ongoing” value (advanced melanoma) was 88% and the “Response duration: Median in months” value (advanced melanoma; patients with confirmed complete or partial response) was “Not reached”.
